Measured values taken from US9157904B2, “Wnt antagonists and methods of treatment and screening” (OncoMed Pharmaceuticals, Inc., priority 2010, dated 2015).
Values joined by “and” are separate entries in the source; they are usually repeats but may differ in a detail not shown here. Equal entries are not always repeated.

Legend:
[1] = Pharmacokinetics of FZD8-Fc in rat; assay type: in vivo, Sprague Dawley rats; details: tail vein, plasma
Protocol: The pharmacokinetics of FZD8-Fc (54F03) were assessed in rats in a two week pharmacokinetics (PK) study using doses of 2 mg/kg and 10 mg/kg. Sprague Dawley rats, five males in each group, were dosed with FZD8-Fc via the tail vein at 2 mg/kg or 10 mg/kg and followed for two weeks with samples collected at the time points 1, 24, 48, 72, 96, 168, 240, and 336 hours. At each time point, 1 ml of blood was collected into potassium-EDTA tubes and centrifuged. The plasma supernatants were collected and frozen until the samples were analyzed.
The level of FZD8-Fc fusion protein present in the plasma at each time point was quantified and the half-life of FZD8-Fc was calculated for the two doses.

[2] = system: C28 colon tumor xenografts; test: C28 colon tumor xenograft, combination with irinotecan; assay type: in vivo, NOD/SCID mice; details: C28 established tumors; FZD8-Fc 15 mg/kg once a week, irinotecan 15 mg/kg once a week, i.p.
Protocol: The effect of FZD8-Fc in combination with a chemotherapeutic agent on the growth of C28 colon tumor xenografts was analyzed. Dissociated C28 colon tumor cells (10,000 cells) were injected subcutaneously into 6-8 week old male NOD/SCID mice. Tumors were allowed to grow for 21 days until they reached an average volume of 128 mm^3. The mice were randomized (n=10 per group) and treated with FZD8-Fc (54F03) (15 mg/kg once a week), irinotecan (15 mg/kg once a week), a combination of FZD8-Fc and irinotecan or a control antibody. Administration of the FZD8-Fc, irinotecan and control antibody was performed via injection into the intraperitoneal cavity. Tumor growth was monitored and tumor volumes were measured with electronic calipers at the indicated time points. Data are expressed as mean±S.E.M.

PN21 pancreas tumor = PN21 pancreas tumor xenograft, tumor growth; assay type: in vivo, NOD/SCID mice; details: FZD8-Fc 15 mg/kg i.p. once weekly
Protocol: The anti-tumor activity of FZD8-Fc (54F03) was evaluated in the PN21 pancreas tumor xenograft model. Dissociated OMP-PN21 cells (50,000 per animal) were injected subcutaneously into 6-8 week old male NOD/SCID mice. Tumor growth was monitored weekly and tumor measurements were initiated once tumors were palpable. On day 36, mice with average tumor volumes of 144 mm^3 were randomized into 4 groups of 9 animals each. Animals were injected with control antibody, FZD8-Fc (15 mg/kg), gemcitabine (2 mg/kg) or a combination of FZD8-Fc and gemcitabine. Administration of the FZD8-Fc and gemcitabine was performed via injection into the intraperitoneal cavity, once weekly. Tumors were measured twice a week and tumor volume was determined as described herein.

PN21 tumors = test: Alcian blue and Ki67 staining of treated PN21 tumors; assay type: in vivo, NOD/SCID mice
Protocol: The cell differentiation capability of FZD8-Fc was also evaluated in the OMP-PN21 pancreas tumor xenograft model. PN21 tumors from studies described in Example 8 were harvested and fixed in formalin, embedded in paraffin, and tumor sections of 4 μm thickness were cut. After deparaffinization and hydration, the tumor sections were subjected to an antigen retrieval process in Tris buffer (pH 9.5). Sections were incubated with hydrogen peroxide (Sigma-Aldrich, St Louis, Mo.) for 10 minutes to block endogenous peroxidases. Anti-Ki67 antibody (clone MIB-1, Dako, Carpinteria, Calif.) in blocking buffer (3% NHS, 1% BSA, 0.1% Tween-20 in PBS) at 1:200 dilution was added to each section and incubated for 1 hour. Slides were rinsed 3 times in PBST for 5 minutes each. Anti-mouse secondary antibody conjugated with HRP (ImmPRESS™ anti-mouse, Vector Laboratories Inc., Burlingame, Calif.) was added to the slides and incubated for 30 minutes. After multiple washes with PBST, Vector Nova Red substrate (Vector Laboratories Inc., Burlingame, Calif.) was added for localization of Ki67 antigen. The sections were treated with aqueous acetic acid for 5 minutes at room temperature. The sections were then treated with 1% alcian blue in 3% aqueous acetic acid for 30 minutes and washed with water. Sections were counter-stained in neutral fast red, dehydrated and mounted. […]

[3] = system: canonical Wnt signaling pathway; test: Luciferase reporter assay in STF293 cells with Wnt3a-conditioned medium; assay type: cell-based; details: blocking of Wnt3a-induced luciferase in STF293 cells; relative to reference standard set at 100%
Protocol: The ability of the FZD8-Fc variants to block or inhibit activation of the Wnt signaling pathway was determined in vitro using a luciferase reporter assay. STF293 cells were cultured in DMEM supplemented with antibiotics and 10% FCS. The STF293 cells are stably transfected with a reporter vector containing seven copies of the TCF transcriptional response element linked to a promoter upstream of a firefly luciferase reporter gene. This construct measures the activity of the canonical Wnt signaling pathway. The cells were added to cultures plates at 10,000 cells per well. After an overnight incubation the FZD8-Fc variants or control mouse JAG1-Fc were added in combination with Wnt3a-conditioned medium. The FZD8-Fc variants and JAG1-Fc were used at concentrations of 20, 4, 0.8, 0.16, 0.03, 0.006, 0.0012, and 0.0003 ug/ml. The cells were incubated in 25% Wnt3A-conditioned medium that had been prepared from L cells that stably express Wnt3a. After overnight incubation (approximately 18 hrs), luciferase levels were measured using a Steady-Glo® luciferase assay kit (Promega, Madison, Wis.).
The blocking activity of the FZD8-Fc variants was determined and is presented in Table 3 as relative activity as compared to the same reference standard run in each assay which was set at 100%.

PN4 tumors = test: FACS for ESA, CD44 and CD201 on PN4 tumors treated with variants; assay type: in vivo, NOD/SCID mice; details: vs control antibody
Protocol: Pancreatic tumor cells from the tumor-bearing mice described above were harvested and minced into approximately 1 mm^3 fragments, followed by enzymatic digestion at 1 gram per 10 ml of 300 μg/ml collagenase and 200 U/ml DNase I for 2 hours at 37° C./5% CO2 with intermittent mixing with a 10 ml pipet to disperse cells. Digestion was stopped by adding an equal volume of FACS buffer (1× Hanks Buffered Saline Solution (HBSS), 2% heat-inactivated Fetal Calf Serum (FCS) and 2 mM HEPES pH 7.4). Cells were filtered through 40 μm nylon filters and collected by centrifugation at 150×g for 5 minutes. Red blood cells were lysed in a hypotonic buffer containing ammonium chloride for 2 minutes on ice, and the cells were washed again with excess FACS buffer, and resuspended with FACS buffer at 1×10^7 cells/ml.
The freshly prepared single cell suspensions were stained for 20 minutes on ice with biotinylated anti-mouse H-2Kd (clone SF1-1.1, Biolegend, San Diego, Calif.) at 5 μg/ml, biotinylated anti-mouse CD45 (30-F11, Biolegend) at […], and streptavidin-PerCP-Cy5.5 (eBioscience, San Diego, Calif.) at 1:200 dilution. Unbound antibody was removed by washing twice with 10 volume of FACS buffer. […]

54F03: Fri domain of human FZD8 fused to human IgG1 Fc with GRA linker; SEQ ID NO:1
half-life ([1]; 2 mg/kg): 163 h | half-life ([1]; 10 mg/kg): 157 h | reduction in tumor growth over control antibody [2]: 66% | reduction in tumor growth as compared to control (PN21 pancreas tumor): 66% | proliferating cells denoted by expression of Ki67 (PN21 tumors): decrease in proliferating cells | cells expressing sialomucins (alcian blue) (PN21 tumors; vs control antibody or gemcitabine alone): increase in cells expressing sialomucins | % Relative Activity [3]: 107% and 143% | percentage of CD44^hi cells (PN4 tumors): decreased the percentage of CD44^hi cells | percentage of CD201^+CD44^+ cells (PN4 tumors): decreased the percentage of CD201^+CD44^+ cells
